Laboratory results taken from US20160106695A1, “PETROSELINIC ACID OR A COMBINATION OF ACTIVE INGREDIENTS COMPRISING AT LEAST PETROSELINIC ACID FOR PROMOTING WEIGHT LOSS AND/OR WEIGHT MAINTENANCE” (NESTEC SA, priority 2013, published 2016).

Tested on: lipoxin A4 production by mononuclear blood cells
Assay: Synthesis/release of lipoxin A4 by stimulated (PMA/A23187 + DHA/EPA) mononuclear blood cells, LC-MS quantification
Format: cell-based
Conditions: 30 min pre-incubation, 2 hours of stimulation
Method: Mononuclear blood cells are cultured under 5% CO2 and at 37° C. in a serum-free medium for macrophages (SFM Macrophage; Invitrogen 12065074) for 24 hours.
After this step, the medium is replaced with the same fresh test medium also containing the active agents at the various doses for 30 minutes in the presence of the various products to be evaluated, as indicated in the table of results below. The inflammatory response was then triggered in the presence of phorbol myristate (0.05 μM) and calcium ionophore (1 μM) and of a lipid substrate mixture composed of docosahexaenoic acid (DHA—1 μg/mL) and eicosapentaenoic acid (EPA—1 μg/mL).
The supernatants were then collected after 2 hours of stimulation and frozen at −80° C. before preparation for analysis by mass spectrometry.
Experimental triplicates (three wells) were prepared per experimental condition. Into each culture plate was placed a control corresponding to cells stimulated with the PMA/A23187 mixture and/or with addition of the equimolar mixture of fatty acids.
The thawed supernatants were concentrated by solid-phase extraction (SPE) and taken up in methanol before spectrometric analysis. The analytical method used consists in separating the various analytes by high-pressure liquid chromatography as a function of their retention time and in quantifying them by mass spectrometry. […]

Compound | Level of lipoxin A4 production (% modulation relative to the control) (taurine 3.1 mg/ml) | Level of lipoxin A4 production (% modulation relative to the control) (zinc gluconate 0.005 mg/ml) [%]
NCCS(=O)(=O)O [Taurine] | +38% | –
Zinc gluconate | – | −5
